The experiment has as its system Salmonella typhimurium. Put plainly: Example 1: effect of pH buffering of acetic and propionic acid on antimicrobial activity in water. The experiment is classed as cell-based. Particulars: for MIC at 4 Hr / MIC at 24 HR: Minimum Inhibitory Concentrations, by linear regression over 0.025-0.1% acid solutions. As to the method:
Propionic and acetic acids were buffered with ammonium hydroxide to pHs ranging from 1 to 7. Acid contents of the buffered solutions were determined by a weight to weight ratio calculation to obtain the same acid content in the test solutions. […] The pHs of the deionized water solutions were recorded and any problems with solubility noted.
100 ul of a nutrient broth culture of Salmonella typhimurium was added to each dilution tube. After addition, tubes were vortexed and allowed to stand. At 4 and 24 hours after addition of the inoculum, 100 ul of the solution was plated on Standard Plate agar (triplicate plates). Plates were incubated at 37° C. for 24 hours prior to enumeration. The minimum effective dose of each acid was determined by linear regression.

[1] abbreviates: Product Conc. 0.025 (% acid solution in water).
Where [2] appears, read: Product Conc. 0.05 (% acid solution in water).
The mark [3] stands for this setting: Product Conc. 0.075 (% acid solution in water).
The mark [4] stands for this setting: Product Conc. 0.1 (% acid solution in water).

SMILES strings stand for the structures.

`CCC(=O)O` [Propionic pH 6, Propionic acid]: under setting [1], the “Salmonella at time Interval 4 hr % reduction” value is reported as 0%, the “Salmonella at time Interval 4 hr cfu/g” value was over 1505 cfu/g, the “Salmonella at time Interval 24 hr % reduction” value came to 0% and the “Salmonella at time Interval 24 hr cfu/g” value is 1450 cfu/g. For the same compound, under setting [2], the “Salmonella at time Interval 4 hr % reduction” value was 7%, the “Salmonella at time Interval 4 hr cfu/g” value was 1400 cfu/g, the “Salmonella at time Interval 24 hr % reduction” value was 10% and the “Salmonella at time Interval 24 hr cfu/g” value amounted to 1067 cfu/g. For the same compound, under setting [3], the “Salmonella at time Interval 4 hr % reduction” value is recorded as 0%, the “Salmonella at time Interval 4 hr cfu/g” value is over 1505 cfu/g, the “Salmonella at time Interval 24 hr % reduction” value was 0% and the “Salmonella at time Interval 24 hr cfu/g” value came to 1233 cfu/g. Besides, under setting [4], the “Salmonella at time Interval 4 hr % reduction” value is reported as 0%, the “Salmonella at time Interval 4 hr cfu/g” value was 1700 cfu/g, the “Salmonella at time Interval 24 hr % reduction” value stood at 0% and the “Salmonella at time Interval 24 hr cfu/g” value is given as 1333 cfu/g.

`CCC(=O)O` [Propionic pH 4, Propionic acid]: where the note is “pH 4”, the “MIC at 4 Hr” value turned out to be 0.237 and the “MIC at 24 HR” value turned out to be 0.091. Under setting [1], the “Salmonella at time Interval 4 hr % reduction” value came out at 9%, the “Salmonella at time Interval 4 hr cfu/g” value was 1367 cfu/g, the “Salmonella at time Interval 24 hr % reduction” value is reported as 48% and the “Salmonella at time Interval 24 hr cfu/g” value is 615 cfu/g. Also, under setting [2], the “Salmonella at time Interval 4 hr % reduction” value is listed as 20%, the “Salmonella at time Interval 4 hr cfu/g” value came out at 1200 cfu/g, the “Salmonella at time Interval 24 hr % reduction” value is on record as 75% and the “Salmonella at time Interval 24 hr cfu/g” value turned out to be 293 cfu/g. For the same compound, under setting [3], the “Salmonella at time Interval 4 hr % reduction” value was 37%, the “Salmonella at time Interval 4 hr cfu/g” value is recorded as 943 cfu/g, the “Salmonella at time Interval 24 hr % reduction” value is on record as 84% and the “Salmonella at time Interval 24 hr cfu/g” value came to 187 cfu/g. Besides, under setting [4], the “Salmonella at time Interval 4 hr % reduction” value was 22%, the “Salmonella at time Interval 24 hr % reduction” value is 86% and the “Salmonella at time Interval 24 hr cfu/g” value is listed as 163 cfu/g.

As for `CCC(=O)O` [Propionic pH 2, Propionic acid], under “pH 2”, the “MIC at 4 Hr” value is given as 0.120 and the “MIC at 24 HR” value is given as 0.064. Further, under setting [1], the “Salmonella at time Interval 4 hr % reduction” value is on record as 29%, the “Salmonella at time Interval 4 hr cfu/g” value turned out to be 1067 cfu/g, the “Salmonella at time Interval 24 hr % reduction” value is 94% and the “Salmonella at time Interval 24 hr cfu/g” value was determined as 70 cfu/g. For the same compound, under setting [2], the “Salmonella at time Interval 4 hr % reduction” value is 51%, the “Salmonella at time Interval 4 hr cfu/g” value was determined as 733 cfu/g, the “Salmonella at time Interval 24 hr % reduction” value stood at 99% and the “Salmonella at time Interval 24 hr cfu/g” value worked out at 10 cfu/g. Under setting [3], the “Salmonella at time Interval 4 hr % reduction” value is 68%, the “Salmonella at time Interval 4 hr cfu/g” value worked out at 477 cfu/g, the “Salmonella at time Interval 24 hr % reduction” value was 99% and the “Salmonella at time Interval 24 hr cfu/g” value is on record as 13 cfu/g. Under setting [4], the “Salmonella at time Interval 4 hr % reduction” value is reported as 75%, the “Salmonella at time Interval 4 hr cfu/g” value is given as 380 cfu/g, the “Salmonella at time Interval 24 hr % reduction” value is given as 99% and the “Salmonella at time Interval 24 hr cfu/g” value is 7 cfu/g.

As for `CC(=O)O` [Acetic pH 1, Acetic acid], the “MIC at 24 HR” value (pH 1) was 0.065. Under setting [1], the “Salmonella at time Interval 4 hr % reduction” value turned out to be 41%, the “Salmonella at time Interval 4 hr cfu/g” value is 883 cfu/g, the “Salmonella at time Interval 24 hr % reduction” value was 91% and the “Salmonella at time Interval 24 hr cfu/g” value is 107 cfu/g. Further, under setting [2], the “Salmonella at time Interval 4 hr % reduction” value was determined as 50%, the “Salmonella at time Interval 4 hr cfu/g” value was determined as 750 cfu/g, the “Salmonella at time Interval 24 hr % reduction” value was found to be 99% and the “Salmonella at time Interval 24 hr cfu/g” value came out at 7 cfu/g. Besides, under setting [3], the “Salmonella at time Interval 4 hr % reduction” value is recorded as 59%, the “Salmonella at time Interval 4 hr cfu/g” value worked out at 617 cfu/g, the “Salmonella at time Interval 24 hr % reduction” value is 99% and the “Salmonella at time Interval 24 hr cfu/g” value amounted to 17 cfu/g. In addition, under setting [4], the “Salmonella at time Interval 4 hr % reduction” value was found to be 65%, the “Salmonella at time Interval 4 hr cfu/g” value is on record as 520 cfu/g, the “Salmonella at time Interval 24 hr % reduction” value is on record as 99% and the “Salmonella at time Interval 24 hr cfu/g” value worked out at 7 cfu/g.

Consider `CCC(=O)O` [Propionic pH 1, Propionic acid], for which, where the note is “pH 1”, the “MIC at 4 Hr” value stood at 0.131 and the “MIC at 24 HR” value was found to be 0.066. Also, under setting [1], the “Salmonella at time Interval 4 hr % reduction” value was found to be 20%, the “Salmonella at time Interval 4 hr cfu/g” value was found to be 1200 cfu/g, the “Salmonella at time Interval 24 hr % reduction” value was 89% and the “Salmonella at time Interval 24 hr cfu/g” value is on record as 133 cfu/g. Besides, under setting [2], the “Salmonella at time Interval 4 hr % reduction” value was determined as 39%, the “Salmonella at time Interval 4 hr cfu/g” value was determined as 923 cfu/g, the “Salmonella at time Interval 24 hr % reduction” value was found to be 97% and the “Salmonella at time Interval 24 hr cfu/g” value was determined as 37 cfu/g. Under setting [3], the “Salmonella at time Interval 4 hr % reduction” value is given as 65%, the “Salmonella at time Interval 4 hr cfu/g” value was 530 cfu/g, the “Salmonella at time Interval 24 hr % reduction” value is recorded as 98% and the “Salmonella at time Interval 24 hr cfu/g” value was 23 cfu/g. Further, under setting [4], the “Salmonella at time Interval 4 hr % reduction” value stood at 70%, the “Salmonella at time Interval 4 hr cfu/g” value came to 450 cfu/g, the “Salmonella at time Interval 24 hr % reduction” value is 99% and the “Salmonella at time Interval 24 hr cfu/g” value was determined as 10 cfu/g.

Consider `CCC(=O)O` [Propionic pH 5, Propionic acid], for which, under “pH 5”, the “MIC at 4 Hr” value was found to be 0.170 and the “MIC at 24 HR” value turned out to be 0.165. Also, under setting [1], the “Salmonella at time Interval 4 hr % reduction” value stood at 0%, the “Salmonella at time Interval 4 hr cfu/g” value is recorded as over 1505 cfu/g, the “Salmonella at time Interval 24 hr % reduction” value worked out at 33% and the “Salmonella at time Interval 24 hr cfu/g” value is 793 cfu/g. In addition, under setting [2], the “Salmonella at time Interval 4 hr % reduction” value was 7%, the “Salmonella at time Interval 4 hr cfu/g” value is 1400 cfu/g, the “Salmonella at time Interval 24 hr % reduction” value was found to be 20% and the “Salmonella at time Interval 24 hr cfu/g” value came out at 943 cfu/g. For the same compound, under setting [3], the “Salmonella at time Interval 4 hr % reduction” value is 22%, the “Salmonella at time Interval 4 hr cfu/g” value came to 1167 cfu/g, the “Salmonella at time Interval 24 hr % reduction” value is given as 47% and the “Salmonella at time Interval 24 hr cfu/g” value turned out to be 630 cfu/g. For the same compound, under setting [4], the “Salmonella at time Interval 4 hr % reduction” value amounted to 46%, the “Salmonella at time Interval 4 hr cfu/g” value is 817 cfu/g, the “Salmonella at time Interval 24 hr % reduction” value is 53% and the “Salmonella at time Interval 24 hr cfu/g” value was found to be 557 cfu/g.

With `CC(=O)O` [Acetic pH 7, Acetic acid], under setting [1], the “Salmonella at time Interval 4 hr % reduction” value is reported as 0%, the “Salmonella at time Interval 4 hr cfu/g” value stood at 1567 cfu/g and the “Salmonella at time Interval 24 hr % reduction” value amounted to 0%. Also, under setting [2], the “Salmonella at time Interval 4 hr % reduction” value was 0%, the “Salmonella at time Interval 4 hr cfu/g” value turned out to be 1600 cfu/g, the “Salmonella at time Interval 24 hr % reduction” value came out at 0% and the “Salmonella at time Interval 24 hr cfu/g” value came to 1433 cfu/g. In addition, under setting [3], the “Salmonella at time Interval 4 hr % reduction” value is 2%, the “Salmonella at time Interval 4 hr cfu/g” value stood at 1467 cfu/g, the “Salmonella at time Interval 24 hr % reduction” value is on record as 0% and the “Salmonella at time Interval 24 hr cfu/g” value came out at 1433 cfu/g. Under setting [4], the “Salmonella at time Interval 4 hr % reduction” value is 0%, the “Salmonella at time Interval 4 hr cfu/g” value was 1567 cfu/g and the “Salmonella at time Interval 24 hr % reduction” value worked out at 0%.
